A short description of data set [1]: Water solubility (equilibrium solubility at ambient temperature). The data set is classed as physicochemical. The protocol:
The water solubility of Mesylate Salt Form 1 was measured at ambient temperature. Table 6 is a summary of the equilibrium solubility.

Data set [2] is described as follows: Gravimetric vapor sorption (GVS), hygroscopicity. The data set is classed as physicochemical. The protocol:
Gravimetric vapor sorption (GVS) data are collected using a SGA-100 Water Vapor Sorption Analyzer from VTI Corporation. Sample sizes are typically 10 mg. A moisture adsorption/desorption isotherm is recorded by subjecting samples to a series of relative humidity (RH) steps.

≈ marks a conversion by molar mass, not a printed value. Where a name gives a salt, the structure may show the parent alone. Read-outs that look alike come from different tables or passages of the source.

One may read the solubility as the dissolved amount per volume that the medium holds. Regarding `C[C@@H]1CN(C(=O)CN2CC(C)(C)OC[C@H]2C(=O)Nc2cc(Cl)cc3c2[nH]c2cnccc23)C[C@H](C)O1` [Mesylate Form 1, (S)—N-(6-chloro-9H-pyrido[3,4-b]indol-8-yl)-4-(2-((2S,6R)-2,6-dimethylmorpholino)-2-oxoethyl)-6,6-dimethylmorpholine-3-carboxamide Mesylate Form 1], the solubility in data set [1] (pH 2.52, thermodynamic from solid, water, ambient temperature, equilibrium solubility, read-out: Solubility) is greater than 360000 µg/mL; in data set [1] (thermodynamic from solid, in water, crystalline Form 1, read-out: solubility) it was greater than 360000 µg/mL. Also, the pH in data set [1] (pH printed beside the equilibrium water solubility) is on record as 2.52. Moreover, the figures for the “uptake (vapor sorption)” value in data set [2] (at 70% relative humidity (RH)) and in data set [2] (at 90% RH) were 1.5% and 3.4%, respectively.

For `C[C@@H]1CN(C(=O)CN2CC(C)(C)OC[C@H]2C(=O)Nc2cc(Cl)cc3c2[nH]c2cnccc23)C[C@H](C)O1` [free base, (S)—N-(6-chloro-9H-pyrido[3,4-b]indol-8-yl)-4-(2-((2S,6R)-2,6-dimethylmorpholino)-2-oxoethyl)-6,6-dimethylmorpholine-3-carboxamide], the solubility in data set [1] (in water, crystalline free base, read-out: solubility) is roughly 10 µg/mL (≈ 19.5 µM); in data set [1] (water, free base, read-out: intrinsic solubility) it was roughly 10 µg/mL (≈ 19.5 µM).

The values above are taken from patent US20090137579A1, “Mesylate salt of an IKK inhibitor” (Millennium Pharmaceuticals, Inc., priority 2007, published 2009).
